Data on 37 compounds can be found in EPA's ToxValDB 9.5.

Each structure is given as a SMILES string.

The test system of the data set is Rattus norvegicus. The settings on record: oral.
The mark [1] stands for this setting: subchronic, gavage, M, Sprague-Dawley, Relative Organ Weight: Liver increase.
Where [2] appears, read: subchronic, gavage, M, Sprague-Dawley, Deaths + Clinical Observation: Salivation Abnormal resp. noise Irregular respiration Loose stool DiarrheaSoiled fur, nasal/urogenital region….

On to `C=CCOC(=O)CC(C)C` [Allyl isovalerate], for which, for the setting “subchronic, duration: 13 weeks, gavage, M/F, Fischer 344, Deaths + Body Weight Changes: decrease + Histopathology: Liver-Basophilic cytoplasmic change Liver-Multifocal coagulative necrosis Liver-…”, the NOEL turned out to be 31 mg/kg-day.

For orientation: NOAEL means the highest dose or exposure tested at which no adverse effect was seen. With `C=CCOC(=O)C(=C)C` [Allyl methacrylate], the no observed adverse effect level (NOAEL) (subchronic, gavage, M, Sprague-Dawley, Clinical Observation: Hypersalivation + Body Weight Changes: Weight gain decrease + Absolute Organ Weight: Adrenal decrease, Thymus increase…) stood at 15 mg/kg-day.

`O=C1CCCCCCCCCCCN1` [Azacyclotridecan-2-one]: under “subchronic, duration: 90 days, gavage, M/F, Sprague-Dawley, Deaths: None (There were dead animals caused by intubation error) + Blood Chemistry: K increase, TP increase, Alb increase + Histopathology…”, the NOAEL turned out to be 25 mg/kg-day.

For the compound `O=C(Cl)c1ccccc1Cl` [Benzoyl chloride, 2-chloro-], under “subchronic, duration: 42 days, gavage, M, CD(SD), Clinical Observation: Salivation Soft/mucous stool Soiled perianal/perigenital fur + Body Weight Changes: Weight gain decrease + Food …”, the NOEL amounted to 40 mg/kg-day.

Consider `c1ccc(COc2ccc3ccccc3c2)cc1` [Benzyl 2-naphthyl ether], for which the NOEL (subchronic, gavage, M, Sprague-Dawley, Blood Chemistry: T-Bil increase + Relative Organ Weight: Liver increase + Histopathology: Kidney-Globular accumulation of eosinophilic …) was under 100 mg/kg-day.

For the compound `OCc1ccccc1` [Benzyl alcohol], the NOEL (subchronic, duration: 13 weeks, gavage, M/F, Fischer 344, Deaths + Clinical Observation: Died Staggering Labored breathing Blood around nose and mouth + Body Weight Changes: decrease + …) was 200 mg/kg-day.

For `CCCCC(CC)COC(=O)C1CC=CCC1C(=O)OCC(CC)CCCC` (stereo not given) [Bis(2-ethylhexyl) 4-cyclohexene-1,2-dicarboxylate], where the note is “subchronic, duration: 42 days, gavage, M, CD(SD), Hematology: WBC decrease, LYMPH decrease, NEUT decrease, Large unstained cell decrease + Absolute Organ Weight: Kidney increase + Relative …”, the NOEL amounted to 100 mg/kg-day.

As for `CC1CC(CC2CCC(N)C(C)C2)CCC1N` (stereo not given) [Bis(4-amino-3-methylcyclohexyl)methane], the no-observed-adverse-effect level (NOAEL) (subchronic, duration: 90 days, gavage, M/F, Wistar, Deaths: None (There were dead animals due to the intubation error) + Clinical Observation: Deteriorated general state Discolored body region…) turned out to be 2.5 mg/kg-day.

In turn, `[Bi]` [Bismuth] displayed an NOEL (short-term, duration: 28 days, gavage, Crj:CD) of 1000 mg/kg-day.

Consider `COc1cc(-c2ccc(N)c(OC)c2)ccc1N.Cl.Cl` [C.I. Disperse Black 6 dihydrochloride], for which, for the setting “subchronic, duration: 13 weeks, drinking water, M/F, Fischer 344, Body Weight Changes: decrease + Water Consumption: decrease + Hematology: WBC decrease, Lympho decrease, Hct decrease, RBC decrease + Blood …”, the NOEL was under 170 mg/kg-day.

With `Nc1ccc(N)c2c1C(=O)c1c(N)ccc(N)c1C2=O` [C.I. Disperse Blue 1], the NOEL (subchronic, duration: 13 weeks, diet, M/F, Fischer 344, Deaths + Body Weight Changes: decrease + Histopathology: Kidneys-Calculi Urinary bladder a"Inflammation Urinary bladder a"Transitional …) is 115 mg/kg-day.

Regarding `[Cl-].[Cs+]` [Caesium chloride], the NOEL (subchronic, duration: 90 days, gavage, M/F, Sprague-Dawley, Deaths + Clinical Observation: Irritability Convulsion, preening Locomotor activity increase + Body Weight Changes: decrease + Food …) is under 10 mg/kg-day.

As to `COc1ccc2c3c1O[C@H]1[C@@H](O)C=C[C@H]4[C@@H](C2)N(C)CC[C@@]341` [Codeine], the NOEL is under 25 mg/kg-day (subchronic, duration: 13 weeks, diet, F, Fischer 344, Deaths + Clinical Observation: Ruffled fur AlopeciaAbnormal posture + Body Weight Changes: decrease + Hematology: RBC decrease, Plt decrease…) and under 37.4 mg/kg-day (subchronic, duration: 13 weeks, diet, M/F, Fischer 344, Deaths + Clinical Observation: Ruffled fur AlopeciaAbnormal posture + Body Weight Changes: decrease + Hematology: RBC decrease, Plt decrease…).

Turning to `O=c1ccc2ccccc2o1` [Coumarin], for the setting “subchronic, duration: 13 weeks, gavage, M/F, Fischer 344, Deaths + Body Weight Changes: decrease + Hematology: RBC increase + Blood Chemistry: Ch E decrease, Cl decrease, TP increase, Alb increase, …”, the NOEL is under 19 mg/kg-day.

On to `CC(C)(O)C1CCCCC1` [Cyclohexanemethanol, .alpha.,.alpha.-dimethyl-], for which the NOEL (short-term, duration: 28 days, gavage, M/F, Clinical Observation: Salivation + Blood Chemistry: GLUC decrease, TP increase, CRN decrease, BIL increase, T-CHO increase + Absolute Organ …) was under 8 mg/kg-day.

Take `O=C1c2ccccc2C(=O)C1c1ccc2ccccc2n1` [D & C Yellow 11]: the NOEL was under 37 mg/kg-day (subchronic, diet, F, Fischer 344, Body Weight Changes: decrease + Absolute Organ Weight: Liver increase, Lung increase + Relative Organ Weight: Liver increase, Lung increase…) and under 48 mg/kg-day (subchronic, diet, M/F, Fischer 344, Body Weight Changes: decrease + Absolute Organ Weight: Liver increase, Lung increase + Relative Organ Weight: Liver increase, Lung increase…).

The compound `CC(Cl)(Cl)C(=O)[O-].[Na+]` [Dalapon-sodium] came in with an NOEL (subchronic, gavage, M, Sprague-Dawley, Blood Chemistry: TP decrease, BUN increase) of 300 mg/kg-day.

With `c1ccc2c(c1)sc1ccccc12` [Dibenzothiophene], under “short-term, duration: 28 days, gavage, M/F, Sprague-Dawley, Clinical Observation: Salivation Soiled perigenital fur + Functional Observational Battery: Locomotor activity decrease + Body Weight …”, the NOEL turned out to be 3 mg/kg-day.

Regarding `COc1cc(COC(=O)CCCCCCC(C)C)ccc1O` [Dihydrocapsiate], the NOEL (subchronic, gavage, M/F, Crj:CD, Blood Chemistry: ALT increase, Ca increase, Alb increase, TP increase + Absolute Organ Weight: Liver increase + Relative Organ Weight: Liver…) is 300 mg/kg-day.

As to `[CH3][Sn]([CH3])([Cl])[Cl]` [Dimethyltin dichloride], where the note is “subchronic, duration: 90 days, drinking water, M/F, Sprague-Dawley, Deaths + Clinical Observation: Died or sacrificed with poor condition (All remaining animals were sacrificed by week 6) Dehydration …”, the no-observed-adverse-effect level (NOAEL) was under 3.8 mg/kg-day.

With `CCCCCCC[CH2][Sn]([CH2]CCCCCCC)([S]CC(=O)OCC(CC)CCCC)[S]CC(=O)OCC(CC)CCCC` (stereo not given) [Dioctyltinbis(2-ethylhexyl mercaptoacetate)], under “subchronic, duration: 90 days, diet, M/F, Wistar, Deaths + Body Weight Changes: Mean body weight decrease + Food Consumption: decrease + Urinalysis: SG decrease, GOT increase + Hematology: …”, the NOAEL came to 0.96 mg/kg-day.

On to `COCC(C)OCC(C)O` (stereo not given) [Dipropylene glycol monomethyl ether], for which the NOAEL (short-term, duration: 28 days, gavage, M/F, Sprague-Dawley, Clinical Observation: Tentative salivation + Relative Organ Weight: Liver increase + Histopathology: Liver-Centrilobular hypertrophy) worked out at 200 mg/kg-day.

Regarding `C=CC(=O)OCC` [Ethyl acrylate], the NOAEL (subchronic, duration: 90 days, gavage, M, Fischer 344, Necropsy: Small intestine: Reddening, duodenal mucosa Stomach: Prominent blood vessel, cardiac region) worked out at 55 mg/kg-day.

Consider `CN1CCN(c2c(F)cc3c(=O)c(C(=O)O)cn(CCF)c3c2F)CC1` [Fleroxacin], for which the NOEL (chronic, duration: 91 days, gavage, M/F, Wistar, Deaths + Clinical Observation: Piloerection + Body Weight Changes: Body weight decrease, Body weight gain decrease + Food Consumption: …) is 45 mg/kg-day.

Turning to `COc1ccc(C[C@@H](C)NC[C@H](O)c2ccc(O)c(NC=O)c2)cc1.COc1ccc(C[C@@H](C)NC[C@H](O)c2ccc(O)c(NC=O)c2)cc1.O=C(O)/C=C/C(=O)O` [Formoterol hemifumarate], the NOEL (subchronic, duration: 35 days, gavage, F, Sprague-Dawley, Deaths + Clinical Observation: Tachycardia Tachypnea Salivation + Body Weight Changes: Body weight gain decrease + Blood Chemistry: GLUC …) came out at 0.3 mg/kg-day and the NOEL (subchronic, duration: 35 days, gavage, M, Sprague-Dawley, Deaths + Clinical Observation: Tachycardia Tachypnea Salivation + Body Weight Changes: Body weight gain decrease + Blood Chemistry: GLUC …) was determined as 0.03 mg/kg-day.

Consider `O=[N+]([O-])c1ccc(NCCO)c(OCCO)c1` [HC Yellow 4], for which, for the setting “subchronic, duration: 13 weeks, diet, M/F, Fischer 344, Body Weight Changes: decrease + Relative Organ Weight: Right kidney increase, Liver increase, Lungs increase, Thymus increase, Testis …”, the NOEL was under 240 mg/kg-day.

Regarding `CC(C)(C)NN.Cl` [Hydrazine, (1,1-dimethylethyl)-, monohydrochloride], under “subchronic, gavage, M, Sprague-Dawley, Hematology: RBC decrease, Hgb decrease, Hct decrease, MCHC decrease, MCV increase, MCH increase, R RET increase, R + Absolute Organ Weight…”, the NOEL is 4 mg/kg-day.

For the compound `C=CC(=O)OCCCCCCCCCCCC` [Lauryl acrylate], under setting [1], the NOAEL came to 1000 mg/kg-day and the NOEL turned out to be 300 mg/kg-day.

As for `CCn1cc(C(=O)O)c(=O)c2cc(F)c(N3CCNC(C)C3)c(F)c21.Cl` (stereo not given) [Lomefloxacin hydrochloride], the NOEL (chronic, duration: 91 days, gavage, M/F, Sprague-Dawley, Deaths + Clinical Observation: Prone position(dead animals) Hypothermia(dead animals) Lid closure(dead animals) Clonic convulsion(dead …) was found to be 30 mg/kg-day.

As for `N#CSCSC#N` [Methylene bis(thiocyanate)], the NOEL reads like this: (subchronic, gavage, F, Fischer 344, Deaths + Clinical Observation: Abnormal respiratory sounds Reddish tear Hunched posture Dyspnea + Hematology: Hct decrease, Hgb decrease, …) 2 mg/kg-day; (subchronic, gavage, M, Fischer 344, Deaths + Clinical Observation: Abnormal respiratory sounds Reddish tear Hunched posture Dyspnea + Hematology: Hct decrease, Hgb decrease, …) 1 mg/kg-day.

For the compound `COC(=O)C(c1ccccc1)C1CCCCN1.Cl` (stereo not given) [Methylphenidate hydrochloride], the NOEL by setting is: (subchronic, duration: 13 weeks, diet, F, Fischer 344, Body Weight Changes: decrease + Food Consumption: decrease + Absolute Organ Weight: Brain increase, Liver increase + Relative Organ Weight: …) 18 mg/kg-day; (subchronic, duration: 13 weeks, diet, M/F, Fischer 344, Body Weight Changes: decrease + Food Consumption: decrease + Absolute Organ Weight: Brain increase, Liver increase + Relative Organ Weight: …) 24 mg/kg-day.

Consider `O=c1c(O)c(-c2ccc(O)cc2O)oc2cc(O)cc(O)c12` [Morin], for which the NOEL is, setting by setting: (subchronic, diet, F, Fischer 344, Body Weight Changes: decrease + Hematology: WBC increase + Blood Chemistry: BUN increase , TP decrease, TG decrease , Alb increase , Cho …) 356 mg/kg-day; (subchronic, diet, M/F, Fischer 344, Body Weight Changes: decrease + Hematology: WBC increase + Blood Chemistry: BUN increase , TP decrease, TG decrease , Alb increase , Cho …) 0.625%.

With `O=C1C=CC(=O)N1c1cccc(N2C(=O)C=CC2=O)c1` [N,N'-1,3-Phenylenedimaleimide], under setting [2], the NOAEL came out at 15 mg/kg-day and the NOEL is under 15 mg/kg-day.

Consider `CO[Si](CCCNCCN)(OC)OC` [N-[3-(Trimethoxysilyl)propyl]ethane-1,2-diamine], for which, where the note is “short-term, duration: 28 days, gavage, M, Sprague-Dawley, Clinical Observation: Perioral soiling Increased nasal sounds Labored respiration Soft vocalization”, the NOAEL is 500 mg/kg-day.

Consider `O=c1[nH]c2ccccc2n1CCCN1CCN(C(c2ccccc2)c2ccccc2)CC1` [Oxatomide], for which the NOEL (subchronic, duration: 30 days, gavage, M/F, Wistar, Deaths + Clinical Observation: Tremor HypersensitivityPiloerection + Body Weight Changes: Body weight gain decrease + Food Consumption: …) came to 40 mg/kg-day.

`Cl.O=C(O)/C=C/c1ccc(Cn2ccnc2)cc1` [Ozagrel hydrochloride]: the NOEL (short-term, duration: 28 days, gavage, M/F, Sprague-Dawley, Deaths + Clinical Observation: Locomotor activity decrease, Respiration rate increase + Body Weight Changes: decrease + Food Consumption: …) was 625 mg/kg-day.

As for `CC(C)(Sc1cc(C(C)(C)C)c(O)c(C(C)(C)C)c1)Sc1cc(C(C)(C)C)c(O)c(C(C)(C)C)c1` [Probucol], where the note is “chronic, duration: 91 days, gavage, Sprague-Dawley”, the NOAEL was over 2250 mg/kg-day.
